Experimental data from patent publication US20050069887A1, “Dna synthesis promoters dna polymerase-associated factors and utilization thereof” (priority 2001, published 2005).

Molecular target: T1, nPfu DNA polymerase (Pyrococcus furiosus, UniProt P61875)
T1 construct: α-Type Enzyme (Native Pfu); purchased STRATAGENE
T1 sequence (P61875 1-775): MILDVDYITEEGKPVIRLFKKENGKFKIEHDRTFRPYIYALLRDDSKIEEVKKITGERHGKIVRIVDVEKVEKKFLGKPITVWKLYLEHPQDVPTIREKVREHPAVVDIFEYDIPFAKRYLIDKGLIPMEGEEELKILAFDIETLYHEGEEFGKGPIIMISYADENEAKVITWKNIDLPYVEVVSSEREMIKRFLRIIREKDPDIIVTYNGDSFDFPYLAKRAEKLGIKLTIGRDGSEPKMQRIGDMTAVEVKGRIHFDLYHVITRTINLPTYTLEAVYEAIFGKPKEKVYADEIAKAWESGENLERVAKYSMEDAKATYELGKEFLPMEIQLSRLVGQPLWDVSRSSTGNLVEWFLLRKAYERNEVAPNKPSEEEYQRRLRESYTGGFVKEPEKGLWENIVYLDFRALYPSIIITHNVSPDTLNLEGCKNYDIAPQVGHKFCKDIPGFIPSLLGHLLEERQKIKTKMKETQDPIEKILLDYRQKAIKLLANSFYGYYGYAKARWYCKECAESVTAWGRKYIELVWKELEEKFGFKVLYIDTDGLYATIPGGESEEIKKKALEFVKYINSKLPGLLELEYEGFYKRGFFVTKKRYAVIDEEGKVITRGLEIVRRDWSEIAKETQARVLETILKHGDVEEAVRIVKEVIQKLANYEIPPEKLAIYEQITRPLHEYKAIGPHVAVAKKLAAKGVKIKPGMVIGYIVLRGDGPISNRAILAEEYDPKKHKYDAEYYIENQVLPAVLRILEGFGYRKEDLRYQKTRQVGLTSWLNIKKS
Assay: PCR using nPfu DNA polymerase with added salts (Examples 1-5, 1-6)
Assay type: biochemical
Conditions: salt at 4-6 mM of ion equivalent, FIG. 7
Procedure: The effect produced by the addition of oxalate ion in PCR was investigated using nPfu polymerase. A PCR buffer (20 mM Tris-HCl (pH 8.75), 10 mM KCl, 10 mM (NH4) 2SO4, 2 mM MgSO4, 0.1% Triton X-100, 100 μg/ml BSA) attached to nPfu (STRATAGENE), 0.2 mM of dNTPs, and 0.3 μM of a pair of primers of SEQ ID NOs:12, and 13 were used. PCR was performed by using 2.5 U nPfu DNA polymerase and 20 ng of genomic DNA derived from human cell line K562 as a template, with the influence on the PCR result caused by varying the concentration of oxalate ion being investigated. PCR was performed by using GeneAmp2400 (PE Applied Biosystems) with the following conditions: 1 preliminary reaction of 94° C. for 2 minutes, and then 35 cycles of 94° C. for 15 seconds, 60° C. for 30 seconds and 68° C. for 8 minutes.
Salts (potassium chloride, potassium acetate, potassium oxalate, potassium sulfate) were tested for their effectiveness in PCR using nPfu DNA polymerase under the same conditions as Example 1-5.

O=C([O-])C(=O)[O-].[K+].[K+] [potassium oxalate]
amplification of target DNA (electrophoresis pattern): amplification of the target DNA observed
